Data as given in ChEMBL document CHEMBL1201862, “PubChem BioAssay data set” (2004).
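Compound exposure: 48 hours, 5 concentrations, 96-well plates. Abbreviation: GI50, concentration required for 50% inhibition of growth.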 The source made the active and inactive calls. No stated cut-off is given here; in the data, active = GI50 up to about 1.1 µM and inactive = higher.

Key:
Test in all cases: NCI-60 cell line screen, 48 h
UACC-257 = tested on: UACC-257
SK-MEL-2 = tested on: SK-MEL-2
SR = tested on: SR
HOP-92 = tested on: HOP-92
M14 = tested on: M14
OVCAR-4 = tested on: OVCAR-4
MDA-MB-435 = tested on: MDA-MB-435
MCF7 = tested on: MCF7
KM12 = tested on: KM12
ACHN = tested on: ACHN
A498 = tested on: A498
HOP-62 = tested on: HOP-62
NCI-H460 = tested on: NCI-H460
SNB-75 = tested on: SNB-75
SF-539 = tested on: SF-539
IGROV-1 = tested on: IGROV-1
MDA-N = tested on: MDA-N
HT-29 = tested on: HT-29
NCI-H226 = tested on: NCI-H226
SN12C = tested on: SN12C
SNB-19 = tested on: SNB-19
SK-MEL-5 = tested on: SK-MEL-5
DU-145 = tested on: DU-145
T47D = tested on: T47D
NCI-H522 = tested on: NCI-H522
OVCAR-5 = tested on: OVCAR-5
SW-620 = tested on: SW-620
NCI/ADR-RES = tested on: NCI/ADR-RES
EKVX = tested on: EKVX
RPMI-8226 = tested on: RPMI-8226
786-0 = tested on: 786-0
MOLT-4 = tested on: MOLT-4
CAKI-1 = tested on: CAKI-1
Hs-578T = tested on: Hs-578T
K562 = tested on: K562
SF-295 = tested on: SF-295
UO-31 = tested on: UO-31
CCRF-CEM = tested on: CCRF-CEM
NCI-H23 = tested on: NCI-H23
A549 = tested on: A549
SK-OV-3 = tested on: SK-OV-3
HCC 2998 = tested on: HCC 2998
BT-549 = tested on: BT-549
LOX IMVI = tested on: LOX IMVI
Malme-3M = tested on: Malme-3M
PC-3 = tested on: PC-3
HL-60 = tested on: HL-60
U-251 = tested on: U-251
TK-10 = tested on: TK-10
OVCAR-3 = tested on: OVCAR-3
MDA-MB-231 = tested on: MDA-MB-231
COLO 205 = tested on: COLO 205
OVCAR-8 = tested on: OVCAR-8
HCT-116 = tested on: HCT-116
SK-MEL-28 = tested on: SK-MEL-28
HCT-15 = tested on: HCT-15
UACC-62 = tested on: UACC-62
SF-268 = tested on: SF-268

## O=C(O)/C=N/NC(=S)NC1CCCCC1
UACC-257
  GI50: > 100 µM (inactive)
SK-MEL-2
  GI50: > 100 µM (inactive)
SR
  GI50: > 100 µM (inactive)
HOP-92
  GI50: > 100 µM (inactive)
M14
  GI50: > 100 µM (inactive)
OVCAR-4
  GI50: > 100 µM (inactive)
MDA-MB-435
  GI50: > 100 µM (inactive)
MCF7
  GI50: > 100 µM (inactive)
KM12
  GI50: > 100 µM (inactive)
ACHN
  GI50: > 100 µM (inactive)
A498
  GI50: > 100 µM (inactive)
HOP-62
  GI50: > 100 µM (inactive)
NCI-H460
  GI50: > 100 µM (inactive)
SNB-75
  GI50: > 100 µM (inactive)
SF-539
  GI50: > 100 µM (inactive)
IGROV-1
  GI50: > 100 µM (inactive)
MDA-N
  GI50: > 100 µM (inactive)
HT-29
  GI50: > 100 µM (inactive)
NCI-H226
  GI50: > 100 µM (inactive)
SN12C
  GI50: > 100 µM (inactive)
SNB-19
  GI50: > 100 µM (inactive)
SK-MEL-5
  GI50: > 100 µM (inactive)
DU-145
  GI50: > 100 µM (inactive)
T47D
  GI50: > 100 µM (inactive)
NCI-H522
  GI50: > 100 µM (inactive)
OVCAR-5
  GI50: > 100 µM (inactive)
SW-620
  GI50: > 100 µM (inactive)
NCI/ADR-RES
  GI50: > 100 µM (inactive)
EKVX
  GI50: > 100 µM (inactive)
RPMI-8226
  GI50: > 100 µM (inactive)
786-0
  GI50: > 100 µM (inactive)
MOLT-4
  GI50: > 100 µM (inactive)
CAKI-1
  GI50: > 100 µM (inactive)
Hs-578T
  GI50: > 100 µM (inactive)
K562
  GI50: > 100 µM (inactive)
SF-295
  GI50: > 100 µM (inactive)
UO-31
  GI50: > 100 µM (inactive)
CCRF-CEM
  GI50: > 100 µM (inactive)
NCI-H23
  GI50: > 100 µM (inactive)
A549
  GI50: > 100 µM (inactive)
SK-OV-3
  GI50: > 100 µM (inactive)
HCC 2998
  GI50: > 100 µM (inactive)
BT-549
  GI50: > 100 µM (inactive)
LOX IMVI
  GI50: > 100 µM (inactive)
Malme-3M
  GI50: > 100 µM (inactive)
PC-3
  GI50: > 100 µM (inactive)
HL-60
  GI50: > 100 µM (inactive)
U-251
  GI50: > 100 µM (inactive)
TK-10
  GI50: > 100 µM (inactive)
OVCAR-3
  GI50: > 100 µM (inactive)
MDA-MB-231
  GI50: > 100 µM (inactive)
COLO 205
  GI50: > 100 µM (inactive)
OVCAR-8
  GI50: > 100 µM (inactive)
HCT-116
  GI50: > 100 µM (inactive)
SK-MEL-28
  GI50: > 100 µM (inactive)
HCT-15
  GI50: > 100 µM
UACC-62
  GI50: > 100 µM (inactive)

## CCOC(=O)CCc1cccc2c1oc1c(CCNC(=O)OCC3c4ccccc4-c4ccccc43)cccc12
UACC-257
  GI50: 41.9 µM (inactive)
SK-MEL-2
  GI50: 76.6 µM (inactive)
SR
  GI50: 22.5 µM (inactive)
HOP-92
  GI50: 23.1 µM (inactive)
M14
  GI50: 38.5 µM (inactive)
OVCAR-4
  GI50: > 100 µM (inactive)
MDA-MB-435
  GI50: > 100 µM (inactive)
MCF7
  GI50: 36.4 µM (inactive)
KM12
  GI50: > 100 µM (inactive)
ACHN
  GI50: 44.3 µM (inactive)
A498
  GI50: > 100 µM (inactive)
HOP-62
  GI50: 16.2 µM (inactive)
NCI-H460
  GI50: > 100 µM (inactive)
SNB-75
  GI50: 13.1 µM (inactive)
IGROV-1
  GI50: 21.3 µM (inactive)
MDA-N
  GI50: > 100 µM (inactive)
NCI-H226
  GI50: 86.7 µM (inactive)
SN12C
  GI50: > 100 µM (inactive)
SNB-19
  GI50: 19.9 µM (inactive)
SK-MEL-5
  GI50: 29.2 µM (inactive)
DU-145
  GI50: > 100 µM (inactive)
T47D
  GI50: 22.8 µM (inactive)
NCI-H522
  GI50: 37.9 µM (inactive)
OVCAR-5
  GI50: > 100 µM (inactive)
SF-268
  GI50: 25.2 µM (inactive)
SW-620
  GI50: > 100 µM (inactive)
NCI/ADR-RES
  GI50: 58.6 µM (inactive)
EKVX
  GI50: > 100 µM (inactive)
RPMI-8226
  GI50: > 100 µM (inactive)
786-0
  GI50: 37.2 µM (inactive)
MOLT-4
  GI50: > 100 µM (inactive)
CAKI-1
  GI50: 12.9 µM (inactive)
Hs-578T
  GI50: 4.17 µM (inactive)
K562
  GI50: > 100 µM (inactive)
SF-295
  GI50: 19.6 µM (inactive)
UO-31
  GI50: 34.9 µM (inactive)
CCRF-CEM
  GI50: > 100 µM (inactive)
NCI-H23
  GI50: 25.6 µM (inactive)
A549
  GI50: > 100 µM (inactive)
SK-OV-3
  GI50: 49 µM (inactive)
HCC 2998
  GI50: > 100 µM (inactive)
BT-549
  GI50: 22.5 µM (inactive)
LOX IMVI
  GI50: 75.9 µM (inactive)
Malme-3M
  GI50: 18.1 µM (inactive)
PC-3
  GI50: 35.2 µM (inactive)
HL-60
  GI50: > 100 µM (inactive)
U-251
  GI50: 57.3 µM (inactive)
TK-10
  GI50: 40.4 µM (inactive)
OVCAR-3
  GI50: 49 µM (inactive)
MDA-MB-231
  GI50: 16.2 µM (inactive)
COLO 205
  GI50: 34.5 µM (inactive)
OVCAR-8
  GI50: 24.9 µM (inactive)
HCT-116
  GI50: 79.3 µM (inactive)
SK-MEL-28
  GI50: > 100 µM (inactive)
HCT-15
  GI50: > 100 µM
UACC-62
  GI50: 16.4 µM (inactive)
